The results in this text go back to PubChem BioAssay AID1645863 (Buhrlage Lab, Dana-Farber Cancer Institute and Novartis …, 2021).

As usually defined, the IC50 is the concentration that gives 50% inhibition.

The source made the active and inactive calls. How the calls were made is not given here. Where a SMILES comes first, the peptide text is derived from it. Bridges are numbered along the chain shown (N, C = ends). The star is where a group is joined. ξ: configuration not given here. Pentadecanoyl(3ξ-OH,15-Gua) = N=C(N)NCCCCCCCCCCCCC(O)CC(=O)* Some results are limits rather than exact numbers.

This experiment deals with Ubiquitin carboxyl-terminal hydrolase 10 (Homo sapiens) (UniProt Q14694). Description: ubiquitin-specific protease 10 DUB inhibitors, concentration-effect, biochemical, verification of primary screen actives (AID 1645863).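 Further: potency values describe inhibition of USP10 cleavage of a fluorogenic ubiquitin substrate.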 To be noted: USP10 deubiquitinase enzymatic assay.
Sequence of Ubiquitin carboxyl-terminal hydrolase 10 (Homo sapiens) (Q14694 whole entry, looked up): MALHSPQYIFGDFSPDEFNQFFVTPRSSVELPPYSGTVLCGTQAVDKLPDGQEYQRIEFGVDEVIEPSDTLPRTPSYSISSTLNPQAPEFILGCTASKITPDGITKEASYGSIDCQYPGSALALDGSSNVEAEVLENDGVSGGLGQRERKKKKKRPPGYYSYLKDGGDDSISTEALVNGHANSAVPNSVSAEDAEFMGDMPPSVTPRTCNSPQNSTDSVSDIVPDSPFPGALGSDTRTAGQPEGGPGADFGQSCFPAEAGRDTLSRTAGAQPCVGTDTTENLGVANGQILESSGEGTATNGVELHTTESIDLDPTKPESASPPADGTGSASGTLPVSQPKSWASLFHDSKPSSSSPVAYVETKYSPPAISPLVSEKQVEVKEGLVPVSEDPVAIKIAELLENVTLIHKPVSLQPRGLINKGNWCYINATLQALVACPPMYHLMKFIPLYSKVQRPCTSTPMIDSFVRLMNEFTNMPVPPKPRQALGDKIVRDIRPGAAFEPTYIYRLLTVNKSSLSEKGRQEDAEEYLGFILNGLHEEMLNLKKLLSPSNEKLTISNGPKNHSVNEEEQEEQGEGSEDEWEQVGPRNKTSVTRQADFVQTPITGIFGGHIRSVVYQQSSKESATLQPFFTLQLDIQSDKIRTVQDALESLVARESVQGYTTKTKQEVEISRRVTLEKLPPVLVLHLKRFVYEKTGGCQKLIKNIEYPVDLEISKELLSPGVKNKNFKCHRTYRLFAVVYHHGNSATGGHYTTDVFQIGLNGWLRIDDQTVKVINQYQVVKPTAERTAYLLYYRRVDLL
With `CCOC(=O)c1cc2c(ccn2C)n1CC(=O)NC1CC1`, the IC50 was > 40 µM (inactive).
On to `Cn1c(COc2cccc3cccnc23)nnc1SCC(=O)c1ccc(Cl)cc1Cl`, for which the IC50 is > 40 µM (inactive).
With `NC(=O)c1nc(-c2cccnc2)nc2c1[nH]c(=O)n2-c1ccc2c(c1)OCO2` the figure was > 40 µM (inactive); with `COc1cc(C)cc2c1C(=O)c1c(cc(O)c(Cl)c1O)C2=O`, 4.38 µM.
In the case of `CCCCCCCCC/C=C/C(=O)CCc1c(O)c(C=O)c2c(c1O)C(=O)OC2O` (configuration not stated) it was 0.584 µM; in that of `CNc1nc2c(c(=O)n1C)CN(C(=O)Nc1cccc3ccccc13)CC2`, > 40 µM (inactive); in that of `c1ccc2sc(-c3csc(-c4ccc5c(c4)OCCO5)n3)nc2c1`, > 40 µM (inactive).
Regarding `COc1ccccc1CNC(=O)C1c2ccccc2C(=O)N1Cc1ccccc1C` (configuration not stated), the IC50 was > 40 µM (inactive).
With `O=C(CSc1nnc2ccc3ccccc3n12)c1ccc(Cl)cc1` the figure was > 40 µM (inactive); with `O=C(Nc1ccc2c(c1)CCC2)C1Cc2ccccc2CN1C(=O)c1ccccc1` (configuration not stated), > 40 µM (inactive); with `COc1ccc2c(c1)CCc1c-2nc2ccccc2c1N1CCOCC1`, > 40 µM (inactive).
With `O=C(CCc1nnc2n(Cc3ccccc3Cl)c(=O)c3ccccc3n12)NCc1ccccc1` the figure was > 40 µM (inactive); with `COc1ccc(Cn2nc(C)cc2NC(=O)c2cccc(F)c2)cc1OC`, > 40 µM (inactive); with `COc1ccc([C@H]2Oc3cc(OC)cc(O)c3C(=O)[C@@H]2[C@@H]2C(=O)c3c(O)cc(O)cc3O[C@H]2c2ccc(OC)cc2)cc1`, 18.5 µM.
In the case of `Cc1ccc(C(=O)O)cc1NC(=O)C(Sc1cccc(NC(=O)c2ccccc2C)c1)c1ccccc1` (configuration not stated), the IC50 was > 40 µM (inactive).
In the case of `Nc1ncnc2c1ncn2[C@@H]1O[C@H](CO)C[C@@H]1O` it was 24.9 µM.
With `CCOc1ccccc1NC(=O)Cn1c(=O)n(CCC(=O)NCCc2ccc(OC)c(OC)c2)c(=O)c2ccccc21` the figure was > 40 µM (inactive); with `CC(=O)N1CCc2cc(S(=O)(=O)NC(Cc3ccccc3)C(=O)Nc3cccc(Cl)c3C)ccc21` (configuration not stated), 23.8 µM; with `Cc1cccc(C)c1NC(=O)CN1C(=O)CC(c2ccccc2)=Nc2ccccc21`, 26.4 µM.
In the case of `Cc1ccc(-n2nc(C(=O)Nc3ccc(C)cn3)c3ncn(C)c(=O)c32)cc1` it was > 40 µM (inactive); in that of `Cc1cccc(OCC2=NN3C(=N)/C(=C\c4cc(C)n(-c5cc(C)cc(C)c5)c4C)C(=O)N=C3S2)c1`, > 40 µM (inactive).
For `O=C(NCc1ccccc1)Nc1cccc2ccccc12`, the IC50 was > 40 µM (inactive).
With `CCOc1ccc(-n2ccnc(SCC(=O)Nc3ccccc3F)c2=O)cc1` the figure was 39.1 µM.
As for `O=C(c1cnccn1)N1CC[C@@H]2CNS(=O)(=O)[C@@H]2CC1`, the IC50 was > 40 µM (inactive).
Take `COc1ccc(NC(=O)Cn2cc(C(=O)c3ccc(C)cc3)c(=O)c3ccccc32)cc1`: the IC50 was 30.1 µM.
With `Cc1nc2c(-c3ccc(Cl)cc3)c[nH]n2c(=O)c1Cc1ccccc1` the figure was > 12.6 µM (inactive).
For `CCOc1ccc(-c2noc(-c3nn(-c4cccc(OC)c4)ccc3=O)n2)cc1`, the IC50 was > 40 µM (inactive).
In the case of `Cc1ccc(NC(=O)Nc2ccc(C)n(CC(=O)Nc3ccc(C)c(C)c3)c2=O)cc1` it was 11.1 µM.
With `COc1cc2c(cc1OC)-c1cc(Nc3ccc(Br)cc3)nc(=O)n1CC2` the figure was 13.7 µM; with `CCc1[nH]c(=O)cc2cc(OC)c(OC)cc12`, 2.97 µM; with `CCCCC/C=C/C=C/C(=O)OC1C(O)CC(c2ccc3c(c2O)C(=O)c2c(O)cc4cc(C)cc(O)c4c2C3=O)OC1C` (configuration not stated), > 40 µM (inactive).
With `COC(=O)c1ccc2c(=O)n(CCCCCC(=O)NCc3cccc(Cl)c3)c(=O)[nH]c2c1` the figure was 16 µM.
`COc1ccc(-c2cc3c(=O)n(CC(=O)Nc4ccccc4C)ccn3n2)cc1`: the IC50 was > 40 µM (inactive).
With `COC(=O)c1ccc(Nc2cc(C)nc3cc(C(F)(F)F)ccc23)cc1` the figure was 30.5 µM.
In the case of `COc1cc(NC(=O)Cn2c(=O)n(-c3ccc(CC(=O)NC4CCCC4)cc3)c(=O)c3ccccc32)cc(OC)c1` it was > 40 µM (inactive); in that of `O=C(CCCn1c(=O)c2ccccc2n(CC(=O)NCc2ccccc2Cl)c1=O)NCc1ccc2c(c1)OCO2`, 8.88 µM.
As to `O=C(Nc1cc(S(=O)(=O)Nc2ccc(Cl)cc2)ccc1O)c1cc2c(s1)CCC2`, the IC50 is 10.3 µM.
With `CCOc1ncccc1C(=O)Nc1ccnn1Cc1ccccc1` the figure was > 40 µM (inactive).
In the case of `CNc1ccc(-c2noc([C@@H]3CCCN3Cc3cccc(C#N)c3)n2)cn1` it was > 40 µM (inactive); in that of `CS(=O)(=O)c1ccc2nc(N(Cc3cccnc3)C(=O)c3ccc4ccccc4c3)sc2c1`, > 40 µM (inactive).
With `COc1ccc(NC(=O)c2nnc(C(=O)NCc3ccccc3F)s2)cc1` the figure was > 40 µM (inactive); with `Cc1cccc(NC(=O)CNC(=O)c2ccc(-c3noc(C4CCCC4)n3)cc2)c1C`, > 40 µM (inactive); with `Cn1cc(C(=O)Nc2ccccc2)c2[nH]c(=O)n(Cc3ccccc3)c(=O)c21`, > 40 µM (inactive).
Regarding `O=C(Nc1ccc(Cl)cc1F)c1cc(-c2ccccn2)n[nH]1`, the IC50 is > 40 µM (inactive).
With `O=C(Cn1cnc(-c2noc(-c3ccc(F)cc3)n2)c1)Nc1ccccc1F` the figure was > 40 µM (inactive); with `COc1ccc(-c2nc(Cn3nnc(C(=O)Nc4ccc(C)c(C)c4)c3N)c(C)o2)cc1`, 29.1 µM; with `Cc1ccc(-c2cc(C(F)F)n3ncc(C(=O)Nc4ccc(O)cc4)c3n2)cc1`, 14.4 µM.
With `COc1ccc(-c2noc(CC(=O)Nc3cccc(OC)c3)n2)cc1` the figure was > 40 µM (inactive).
With `O=C1CC(c2nc3ccccc3n2CCOc2ccc(Cl)cc2)CN1c1ccccc1` (configuration not stated) the figure was 39.3 µM.
Regarding `O=C(c1[nH]nc2c1COc1ccccc1-2)N1CCN(c2ccccn2)CC1`, the IC50 was > 40 µM (inactive).
With `O=C(Cc1ccc(-n2c(=O)c3ccccc3n(CC(=O)Nc3ccc(Cl)cc3Cl)c2=O)cc1)NCc1ccco1` the figure was 11.3 µM; with `Cc1ccc(C)c(NC(=O)Cn2cc(C(=O)C3CC3)c3ccccc32)c1`, 15.4 µM.
As for `CCC(C)N1CNc2c(c(=O)[nH]c(=O)n2Cc2ccco2)C1` (configuration not stated), the IC50 was > 40 µM (inactive).
With `COc1ccc(Oc2cc3n(c(=O)n2)CCc2cc(OC)c(OC)cc2-3)cc1` the figure was > 40 µM (inactive); with `COc1cccc(C(=O)Nc2nc(-c3nnn(-c4ccc(C)c(F)c4)c3C)ns2)c1`, > 40 µM (inactive); with `O=C(NCc1ccc(Br)cc1)c1cc(-c2cccnc2)n[nH]1`, > 40 µM (inactive).
With `CCCCOc1ccc(C(=O)n2ccn(S(=O)(=O)c3ccc(C)cc3)c2=O)cc1` the figure was > 40 µM (inactive).
With `O=C(Cn1c(=O)n(Cc2ccccc2)c(=O)c2ncccc21)NCc1ccccc1Cl`, the IC50 was > 40 µM (inactive).
As for `O=c1c2ccccc2nc(/C=C/c2ccco2)n1Cc1ccccc1`, the IC50 was > 40 µM (inactive).
With `O=C(c1cccc2ncccc12)N1CCN(c2ccnc3cc(Cl)ccc23)CC1` the figure was > 40 µM (inactive).
In the case of `COc1ccc(CCNC(=O)Cn2c(=O)c3sccc3n(Cc3cccc([N+](=O)[O-])c3)c2=O)cc1OC` it was 16 µM.
In the case of `CCOc1ccc(Oc2nc(CN3CCCC3)nc3sc(C)c(C)c23)cc1` it was > 40 µM (inactive); in that of `COc1ccc(S(=O)(=O)NCc2ccc3c(c2)cc(C)n3C)cc1`, > 40 µM (inactive).
As to `COc1ccccc1NC(=O)c1nc(-c2cn(-c3cccc(F)c3)nn2)no1`, the IC50 was 21.1 µM.
In the case of `Cc1cc(OCC(=O)Nc2ccccc2C(=O)Nc2ccccc2)ccc1Cl` it was 24.6 µM; in that of `Cc1ccccc1-c1nc(-c2cn(CC(=O)Nc3ccccc3)cn2)no1`, > 40 µM (inactive).
In the case of `Cc1ccc(NC(=O)Cn2cc(C(=O)c3ccccc3)c(=O)c3cc(C)ccc32)cc1` it was 23.9 µM; in that of `COc1cc(OC)c2c(c1)C(=O)C1=C(COC(C)(O)C1)C2=O` (configuration not stated), > 40 µM (inactive); in that of `O=C(Nc1ccc(F)cc1)Nc1ccccc1OCc1cc(=O)n2ccccc2n1`, 26.3 µM.
With `Cc1cc(C(=O)NC2(O)C(=O)c3ccccc3C2=O)n(C)n1` the figure was 14.2 µM; with `Cn1cc(NC(=O)Nc2cccc3ccccc23)c2ccccc21`, > 40 µM (inactive).
With `CC1NC(=O)C(CC(N)=O)NC(=O)C(C(C)O)NC(=O)C(Cc2ccc(O)cc2)NC(=O)C(C(C)C)NC(=O)C(NC(=O)CC(O)CCCCCCCCCCCCN=C(N)N)C(C)OC1=O` (configuration not stated) ({Pentadecanoyl(3ξ-OH,15-Gua)}-TVYTNA; ester 1-C; configuration not given here), the IC50 is > 40 µM (inactive).
With `Cc1ccc(NC(=O)CSc2nnc(-c3n[nH]c4c3CCC4)n2N)cc1C` the figure was 26 µM.
With `Cc1sc(NC(=O)c2ccc(S(=O)(=O)N(C)Cc3ccccc3)cc2)c(C(N)=O)c1C` the figure was > 40 µM (inactive); with `O=C(CSc1nnc2n(-c3ccccc3)c(=O)c3ccccc3n12)c1ccc(F)cc1`, 12.9 µM; with `Cc1sc(NC(=O)Cn2nnc3ccccc32)nc1-c1ccc2c(c1)CCN2C(=O)c1ccccc1F`, 16.3 µM.
With `O=C(Nc1ccccc1C(F)(F)F)c1cccc(S(=O)(=O)Nc2cc(C(F)(F)F)ccc2Cl)c1`, the IC50 was > 40 µM (inactive).
With `Fc1ccccc1-c1nc2c3cnn(-c4ccccc4)c3ncn2n1` the figure was > 40 µM (inactive).
Turning to `NC(=O)C[C@H](NC(=O)[C@H](Cc1ccccc1)n1c(=O)[nH]c2ccccc2c1=O)C(=O)N[C@@H](Cc1ccccc1)C(=O)O`, the IC50 is > 40 µM (inactive).
In the case of `Cc1ccc(NC(=O)c2nnn(CC(=O)Nc3cccc(C)c3C)c2N)cc1C` it was 18.1 µM.
In the case of `Cc1ncc(-c2ccc3c(c2)OCO3)c(-c2nccs2)n1` it was > 40 µM (inactive).
In the case of `CCOC(=O)N1CCN(C(=O)c2ccc(CS(=O)c3ccccc3Cl)o2)CC1` (configuration not stated) it was > 40 µM (inactive).
